Measured values published in US6426229B1, “Chelating agent and detergent comprising the same” (Mitsubishi Rayon Co., Ltd., priority 1995, dated 2002).

Test: Storage of aqueous solution or slurry for 60 days: HPLC analysis of components and appearance
Format: physicochemical
Details: keeping temperature 60° C.

Structure (SMILES)	Appearance after kept for 60 days	Content of the compound of the formula [I] in aqueous solution after kept for 60 days [wt. %]
O=C([O-])CN[C@@H](CC(=O)[O-])C(=O)[O-].[Na+].[Na+].[Na+] [compound 35, trisodium salt of (S)-aspartic acid-N-monoacetic acid, reference compound]	Brown slurry	47.3

Same assay, conditions: keeping temperature 70° C.

Structure (SMILES)	Appearance after kept for 60 days	Content of the compound of the formula [I] in aqueous solution after kept for 60 days [wt. %]
O=C([O-])CCN[C@@H](CC(=O)[O-])C(=O)[O-].[Na+].[Na+].[Na+] [Example 99, trisodium salt of (S)-aspartic acid-N-monopropionic acid]	White slurry	79.4

Same assay, conditions: keeping temperature 75° C.

Structure (SMILES)	Appearance after kept for 60 days	Content of the compound of the formula [I] in aqueous solution after kept for 60 days [wt. %]
O=C([O-])CN[C@@H](CC(=O)[O-])C(=O)[O-].[Na+].[Na+].[Na+] [compound 34, trisodium salt of (S)-aspartic acid-N-monoacetic acid, reference compound]	Brown aquequs solution	30.6
O=C([O-])C[C@H](NCCCN[C@@H](CC(=O)[O-])C(=O)[O-])C(=O)[O-].[Na+].[Na+].[Na+].[Na+] [Example 115, tetrasodium (S,S)-1,3-propanediamine-N,N′-disuccinate]	Colorless transparent aqueous solution	44.3
O=C([O-])CN(CC(=O)[O-])c1ccccc1C(=O)[O-].[Na+].[Na+].[Na+] [Example 105, trisodium salt of anthranilic acid-N,N-diacetic acid]	Colorless transparent aqueous solution	49.8

Test: Compression strength (hardening property) of powder stored under load for 2 months
Format: physicochemical
Details: Load 100 (table head [Kg]; text 100 g/cm^2); 20-30° C., relative humidity 40-70%
Description: Method for the Measurement of Compression Strength
(1) A test sample (500 g) is put in a poly-ethylene bag of 20 cm×20 cm in a room at a temperature of 20-30° C. and a relative humidity of 40-70%. The powder is levelled to an area of 20 cm×20 cm and air is forced out of the bag, and, then, the bag is sealed. This bag is further put in a kraft bag and this kraft bag is sealed.
(2) The kraft bag of (1) is placed horizontally on a flat plate and a plate is put thereon. […]
(3) With keeping the temperature of 20-30° C. and the relative humidity of 40-70%, the test sample is taken out after lapse of 2 months from the starting of application of load. Several test pieces (4 cm long×4 cm broad×2 cm high) are cut out from the sample.

Structure (SMILES)	Compression strength after stored for 2 months [Kg/cm^2]
O=C([O-])CC(NCCCNC(CC(=O)[O-])C(=O)[O-])C(=O)[O-].[Na+].[Na+].[Na+].[Na+] (centres unmarked) [compound 18, tetrasodium 1,3-propanediaminedisuccinate, reference compound]	3.0
CN(CC(=O)O)CC(=O)O [compound 13, N-methyliminodiacetic acid, reference compound]	2.7
O=C([O-])CN(CCS(=O)(=O)[O-])CC(=O)[O-].[Na+].[Na+].[Na+] [compound 9, trisodium salt of taurine-N,N-diacetic acid, reference compound]	2.5
O=C(O)CN[C@@H](CC(=O)O)C(=O)O [Example 17, (S)-aspartic acid-N-monoacetic acid]	0.9
O=C(O)C[C@H](NCC(O)CN[C@@H](CC(=O)O)C(=O)O)C(=O)O [Example 70, (S,S)-2-hydroxy-1,3-propanediaminedisuccinic acid]	0.8
O=C([O-])CC(NCCNC(CC(=O)[O-])C(=O)[O-])C(=O)[O-].[Na+].[Na+].[Na+].[Na+] (centres unmarked) [compound 16, tetrasodium ethylenediaminedisuccinate, reference compound]	2.8
C[C@@H](C(=O)O)N(CC(=O)O)CC(=O)O [compound 8, (S)-α-alanine-N,N-diacetic acid, reference compound]	2.6
O=C(O)CCN[C@@H](CC(=O)O)C(=O)O [compound 6, (S)-aspartic acid-N-monopropionic acid, reference compound]	2.5
O=C([O-])CCN[C@@H](CC(=O)[O-])C(=O)[O-].[Na+].[Na+].[Na+] [Example 6, trisodium salt of (S)-aspartic acid-N-monopropionic acid]	1.2
O=C(O)C[C@H](NCCN[C@@H](CC(=O)O)C(=O)O)C(=O)O [Example 66, ethylenediaminedisuccinic acid]	0.8
C[C@@H](C(=O)[O-])N(CC(=O)[O-])CC(=O)[O-].[Na+].[Na+].[Na+] [compound 4, trisodium salt of (S)-α-alanine-N,N-diacetic acid, reference compound]	2.8
O=C(O)CN(CC(=O)O)c1ccccc1C(=O)O [Example 39, anthranilic acid-N,N-diacetic acid]	1.2
O=C([O-])CN[C@@H](CC(=O)[O-])C(=O)[O-].[Na+].[Na+].[Na+] [compound 1, trisodium salt of (S)-aspartic acid-N-monoacetic acid, reference compound]	2.6
O=C(O)CC(NCCCNC(CC(=O)O)C(=O)O)C(=O)O (centres unmarked) [compound 23, 1,3-propanediaminedisuccinic acid, reference compound]	2.7
O=C([O-])CC(NCCCNC(CC(=O)[O-])C(=O)[O-])C(=O)[O-].[Na+].[Na+].[Na+].[Na+] (centres unmarked) [Example 53, tetrasodium 1,3-propanediaminedisuccinate]	0.8
O=C([O-])C[C@H](NCCCN[C@@H](CC(=O)[O-])C(=O)[O-])C(=O)[O-].[Na+].[Na+].[Na+].[Na+] [Example 54, tetrasodium (S,S)-1,3-propanediaminedisuccinate]	0.9
O=C([O-])C[C@H](NCC(O)CN[C@@H](CC(=O)[O-])C(=O)[O-])C(=O)[O-].[Na+].[Na+].[Na+].[Na+] [compound 20, tetrasodium (S,S)-2-hydroxy-1,3-propanediaminedisuccinate, reference compound]	2.7

Same assay, conditions: Load 200 (table head [Kg]; text 200 g/cm^2); 20-30° C., relative humidity 40-70%

Structure (SMILES)	Compression strength after stored for 2 months [Kg/cm^2]
O=C(O)C[C@H](NCCN[C@@H](CC(=O)O)C(=O)O)C(=O)O [Example 62, (S,S)-ethylenediaminedisuccinic acid]	1.0
O=C(O)C[C@H](NCCN[C@@H](CC(=O)O)C(=O)O)C(=O)O [Example 61, ethylenediaminedisuccinic acid]	0.9
O=C([O-])C[C@H](NCCCN[C@@H](CC(=O)[O-])C(=O)[O-])C(=O)[O-].[Na+].[Na+].[Na+].[Na+] [Example 49, tetrasodium (S,S)-1,3-propanediaminedisuccinate]	1.3
O=C([O-])CCN[C@@H](CC(=O)[O-])C(=O)[O-].[Na+].[Na+].[Na+] [Example 2, trisodium salt of (S)-aspartic acid-N-monopropionic acid]	1.0
O=C(O)CN[C@@H](CC(=O)O)C(=O)O [Example 13, (S)-aspartic acid-N-monoacetic acid]	1.1
O=C([O-])CC(NCCNC(CC(=O)[O-])C(=O)[O-])C(=O)[O-].[Fe+3].[NH4+] (centres unmarked) [Example 76, iron ammonium ethylenediaminedisuccinate]	1.1
O=C([O-])CC(NCCNC(CC(=O)[O-])C(=O)[O-])C(=O)[O-].[Na+].[Na+].[Ni+2] (centres unmarked) [Example 78, nickel disodium ethylenediaminedisuccinate]	1.0
O=C([O-])C[C@H](NCCN[C@@H](CC(=O)[O-])C(=O)[O-])C(=O)[O-].[Na+].[Na+].[Ni+2] [Example 81, nickel disodium (S,S)-ethylenediaminedisuccinate]	1.2
O=C([O-])CN(CC(=O)[O-])c1ccccc1C(=O)[O-].[Fe+3] [Example 43, iron salt of anthranilic acid-N,N-diacetic acid]	0.9
O=C([O-])CC(NCCNC(CC(=O)[O-])C(=O)[O-])C(=O)[O-].[Na+].[Na+].[Na+].[Na+] (centres unmarked) [Example 46, tetrasodium ethylenediaminedisuccinate]	1.1

Same assay, conditions: Load 300 (table head [Kg]; text 300 g/cm^2); 20-30° C., relative humidity 40-70%

Structure (SMILES)	Compression strength after stored for 2 months [Kg/cm^2]
O=C(O)C[C@H](NCCN[C@@H](CC(=O)O)C(=O)O)C(=O)O [Example 72, (S,S)-ethylenediaminedisuccinic acid]	1.3
C[C@@H](C(=O)O)N(CC(=O)O)CC(=O)O [Example 24, (S)-α-alanine-N,N-diacetic acid]	0.9
O=C(O)CC(NCCCNC(CC(=O)O)C(=O)O)C(=O)O (centres unmarked) [Example 73, 1,3-propanediaminedisuccinic acid]	1.1
O=C(O)C[C@H](NCC(O)CN[C@@H](CC(=O)O)C(=O)O)C(=O)O [Example 75, (S,S)-2-hydroxy-1,3-propanediaminedisuccinic acid]	1.0
